Laboratory results published in patent US10005846B2, “Anti-transglutaminase 2 antibodies” (MEDICAL RESEARCH COUNCIL TECHNOLOGY, priority 2012, dated 2018).

What was measured:
[1] = target: T1, extracellular TG2 in human HK-2 cells (Homo sapiens, UniProt P21980); test: Extracellular TG activity in HK-2 cells, biotin cadaverine incorporation into fibronectin (Example 1); assay type: cell-based; settings: 400 μM of the site-specific pan TG inhibitor 1,3-Dimethyl-2-[(2-oxo-propyl)thio]imidazolium chloride
T1 construct: endogenous in cells; host or cells: HK-2 (kidney proximal tubular epithelium)
T1 sequence (P21980 1-687): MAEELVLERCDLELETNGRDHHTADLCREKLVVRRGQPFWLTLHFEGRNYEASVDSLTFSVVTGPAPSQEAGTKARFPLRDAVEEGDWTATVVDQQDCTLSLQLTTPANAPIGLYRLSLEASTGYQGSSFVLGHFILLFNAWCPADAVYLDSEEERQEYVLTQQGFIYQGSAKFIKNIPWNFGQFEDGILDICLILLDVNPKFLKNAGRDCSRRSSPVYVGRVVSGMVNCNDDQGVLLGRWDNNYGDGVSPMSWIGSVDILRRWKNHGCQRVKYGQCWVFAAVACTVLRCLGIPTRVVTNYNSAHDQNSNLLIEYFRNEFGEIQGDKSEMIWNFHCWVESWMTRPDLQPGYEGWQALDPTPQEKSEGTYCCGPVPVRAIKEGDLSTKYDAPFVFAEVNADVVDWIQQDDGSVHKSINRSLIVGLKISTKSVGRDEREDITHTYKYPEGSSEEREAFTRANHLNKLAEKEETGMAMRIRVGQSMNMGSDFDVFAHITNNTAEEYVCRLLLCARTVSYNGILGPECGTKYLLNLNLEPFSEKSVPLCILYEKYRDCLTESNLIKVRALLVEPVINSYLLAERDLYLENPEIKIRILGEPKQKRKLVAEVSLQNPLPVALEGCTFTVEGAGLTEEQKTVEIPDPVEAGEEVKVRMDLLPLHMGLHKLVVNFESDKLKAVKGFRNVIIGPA
Experimental: HK2 cells were plated onto fibronectin and incubated for 2 hours in the presence of 0.1M biotin cadaverine with either 4 ng/μl of human anti-TG2 antibody (AB1) (part A), 4 ng/μl of human anti-TG2 antibody (DC1) (part B) or 400 μM of the site-specific pan TG inhibitor 1,3-Dimethyl-2-[(2-oxo-propyl)thio]imidazolium chloride. […] Changes in optical density were measured at 450 nm in a 96 well plate reader. Data represents mean OD at 450 nm corrected to 1 mg of cell protein. n=6 wells per experimental group.
Extracellular TG activity was measured by modified cell ELISA. HK-2 epithelial cells were harvested using 0.1M EDTA or 0.25% trypsin/EDTA and plated at a density of 8×10^4 cells/well in serum free medium onto a 96 well plate that had been coated overnight with 100 μl/well of fibronectin (5 μg/ml in 50 mM Tris-HCl pH 7.4) (Sigma, Poole UK). Cells were allowed to attach for 2.5 h at 37° C. in the presence of the 0.1 mM biotin cadaverine [N-(5 amino pentyl biotinamide) trifluoroacetic acid] (Molecular Probes, Eugene Oreg., USA). Plates were washed twice with 3 mM EDTA/PBS and cells removed with 0.1% (w/v) deoxycholate in 5 mM EDTA/PBS. The supernatant was collected and used for protein determination. […] The reaction was stopped with 50 μl 2.5 M H2SO4 and the absorbance read at 450 nm.

[2] = tested on: WI-38 cells; test: Scratch wound assay in WI-38 cells; assay type: cell-based, human; settings: serum free media; Cytochalasin D 0.1 μM, R281 100 μM, Z DON 10 μM and 100 μM, Cub7402 5 μg/ml
Experimental: WI-38 cells (normal human lung fibroblasts ATCC cat#CCL-75) were plated in a 96 well Image Lock plate (Essen cat#4379) at 2×10^4/well in αMEM media (Life Technologies cat#32561) with 10% FBS and grown O/N to >97% confluence. Cells were washed 2× with αMEM media without serum and a scratch wound was generated using an Essen Wound Maker and the manufacturers protocol. The media was removed and replaced with 95 μl/well serum free media. Controls and test antibodies were added to the wells. The plate was placed in an Essen Incucyte and the closure of the wound was analysed using the scratch wound protocol.
Cytochalasin D was used as an assay control at 0.1 μM. R281, a small molecule non-specific transglutaminase inhibitor, was tested at 100 μM. Z DON, a peptide non reversible transglutaminase inhibitor was tested at 10 μM and 100 μM. The commercially available TG2 antibody Cub7402 (ABcam cat#ab2386) was tested at 5 μg/ml. Antibodies of the invention were tested on at least three occasions at various concentrations as indicated. In all experiments controls were Cytochalasin D at 0.1 uM and ZDON at two concentrations to show a dose dependant effect.

inhibition of extracellular TG activity relative to AB1 and DC1 [1] | SMILES | effect on wound closure [2]
comparable | CC(=O)CSc1n(C)cc[n+]1C.[Cl-] [1,3-Dimethyl-2-[(2-oxo-propyl)thio]imidazolium chloride, reference compound] | 
 | C=C1[C@@H](C)[C@H]2[C@H](Cc3ccccc3)NC(=O)[C@]23[C@H](OC(C)=O)/C=C/[C@@](C)(O)C(=O)[C@@H](C)C/C=C/[C@H]3[C@@H]1O [Cytochalasin D, reference compound] | inhibited wound closure
